Experimental data reported in patent publication US10828315B2 (Madrigal Pharmaceuticals, Inc., priority 2013, dated 2020).
Converted amounts (≈) assume the structure as drawn. “Also recorded” adds a separate entry of the source. Where two headings read alike, the source gives them in different places.

Assays:
[1] = system: human breast cancer cell line BT-474; assay: Cytotoxicity assay (CellTiter-Glo, 72 h), BT-474; assay type: cell-based; conditions: BT-474, 72 hours, read-out: Cytotoxicity (IC50, nM) BT-474
Description: Cytotoxicity of SDC-TRAP molecules was determined in three cancer cell lines. […] 80 μL of CellTiter-Glo was added to each well, followed by room temperature incubation in the dark for 15 minutes. Cell was determined by luminescence. IC50 was calculated using XLfit™ software.

[2] = Solubility of SDC-TRAP-0063 (ganetespib placebo formulation, PEG-300); assay type: physicochemical; conditions: for solubility at 1 h / solubility at 1 day / solubility at 3 days / solubility at 7 days: ganetespib placebo formulation, organic solvent or mixture, thermodynamic from solid
Description: Concentration of dissolved drug was determined by HPLC assay method at 1 hr, 1 day, 3 days and 7 days.

[3] = system: human SCLC tumor xenografts; assay: Antitumor activity in human SCLC tumor xenografts; assay type: in vivo, mice
[4] = system: H2AX phosphorylation, HSP70, EGFR, MET; assay: Pharmacodynamics in CRC (HCT-116) xenograft tumors; assay type: in vivo, mouse
[5] = Metabolite profiling and identification; assay type: in vitro ADME; parameters: key: —: Not detected; conditions: for Metabolite Hydrolysis (SN-38): M+1 393.3; for Metabolite Hydrolysis (SN-38) + H2O (carboxylate form): M+1 411.3; for Metabolite Hydrolysis (SDC-TRAP-0062): M+1 462.3; for Metabolite Hydrolysis (SDC-TRAP-0062) + N-dealkylation + glucuronide: M+1 527.3; for Metabolite Hydrolysis (SN-38) + glucuronidation: M+1 569.3; for Metabolite Hydrolysis (SN-38) + hydroxylation + glucuronidation: M+1 585.3; for Metabolite Hydrolysis (SDC-TRAP-0062) + glucuronidation: M+1 638.3; for Metabolite Hydrolysis (SDC-TRAP-0062) + oxidation + glucuronide: M+1 652.3; for Metabolite Hydrolysis (SDC-TRAP-0062) + di-oxidation + glucuronide: M+1 668.3; for Metabolite Hydrolysis (SDC-TRAP-0062) + H2O (ring opened) + glucuronide: M+1 670.3; for Metabolite Hydroxylation: M+1 896.3; for Metabolite Carboxylate form: M+1 898.3; for Metabolite Di-hydroxylation: M+1 912.4; for Metabolite Glucuronidation: M+1 1056.4
Text: Metabolite Profiling and Identification: Metabolite profiling/identification for SDC-TRAP-0063 (M+1:880.3)

[6] = mouse
MCF-7 xenografts = conditions: mouse, in vivo
Description: MCF-7 breast cancer cells were purchased from ATCC. The cells were maintained in vitro as a monolayer culture in McCoy's 5a Medium. Fetal bovine serum was then added to the medium. The final concentration of fetal bovine serum was 10%. Cells were cultured at 37° C. and 5% CO2. The tumor cells were routinely sub-cultured twice weekly by trypsin-EDTA treatment. Cells in an exponential growth phase were harvested and counted for tumor inoculation.
75 24-30 g, 10-13 week old, female CD-1 nude mice were inoculated with the MCF-7 cells (5.0×10^6/mouse) orthotopically in mammary fat pad (0.1 mL/mouse). 60 days estrogen pellets was implanted the day prior to cell implantations. When the average tumor volume reached about 100-225 mm^3, 40 of the inoculated mice were selected based on tumor growth and randomly grouped into 5 treatment groups (8 mice per group) according to the following table. Mice that were not put on treatment were euthanized.
During the treatment period, the implanted tumors were measured by caliper twice per week. […] Animal body weights were also weighed and recorded 5× per week.

[7] = Solubility of SDC-TRAP-0063 (ganetespib placebo formulation, PEG-300); assay type: physicochemical; conditions: PEG-300, organic solvent or mixture, thermodynamic from solid; Lot 8; estimated; read-out: equilibrium solubility in PEG-300
[8] = Artificial membrane permeability assay (PAMPA); conditions: same protocol, second table
[9] = system: HCT-116 human colorectal xenografts; assay: Mouse xenograft efficacy in HCT-116 colon cancer model; conditions: IV
Description: The cells were maintained in vitro as a monolayer culture in McCoy's 5a Medium. Fetal bovine serum was then be added to the medium. The final concentration of fetal bovine serum was 10%. Cells were cultured at 37° C. and 5% CO2. The tumor cells were routinely sub-cultured twice weekly by trypsin-EDTA treatment. Cells in an exponential growth phase were harvested and counted for tumor inoculation.
100 18-22 g, 5-7 week old, female BALB/cA nude mice were inoculated with the HCT 116 cells (2.0×10^6, 1:1 with Matrigel) subcutaneously on the back of each animal (0.1 mL/mouse). When the average tumor volume reached about 150-250 mm^3, 60 of the inoculated mice was selected based on tumor growth and randomly grouped into 6 treatment groups (10 mice per group) according to the following table.
The administrations were made with 27-gauge IV needle.
During the treatment period, the implanted tumors were measured by caliper twice per week. The tumors were measured for the maximum width (X) and length (Y) and the tumor volumes (V) were calculated using the formula: V=(X^2Y)/2. The differences in the tumor volume between the control and treatment groups were analyzed for significance using the unpaired two-tailed Student's t-test. P<0.05 was considered to be statistically significant. The animal body weights were also weighed and recorded twice per week.

[10] = kinetic solubility in ganetespib placebo formulation, Lot6
[11] = kinetic solubility in ganetespib placebo formulation, Lot8

CCc1c2c(nc3ccc(OC(=O)N4CCC(CCn5ccc6cc(-n7c(O)nnc7-c7cc(C(C)C)c(O)cc7O)ccc65)CC4)cc13)-c1cc3c(c(=O)n1C2)COC(=O)[C@]3(O)CC [SDC-TRAP-0063, 4,11-diethyl-4-hydroxy-3,14-dioxo-3,4,12,14-tetrahydro-1H-pyrano[3′,4′:6,7]indolizino[1,2-b]quinolin-9-yl 4-(2-(5-(3-(2,4-dihydroxy-5-isopropylphenyl)-5-hydroxy-4H-1,2,4-triazol-4-yl)-1H-indol-1-yl)ethyl)piperidine-1-carboxylate]
IC50 [1]: 320 nM
solubility at 1 h ([2]; kinetic solubility in ganetespib placebo formulation (35% v/v tween 80, 40% v/v PEG-300, 25% v/v dehydrated alcohol), Lot6): 11.3 mg/mL (≈ 12.8 mM)
solubility at 1 day [2, 10]: 10.2 mg/mL (≈ 11.6 mM)
solubility at 3 days [2, 10]: 9.68 mg/mL (≈ 11 mM)
solubility at 7 days [2, 10]: 7.32 mg/mL (≈ 8.32 mM)
solubility at 1 h [2, 11]: 36.2 mg/mL (≈ 41.1 mM)
solubility at 1 day [2, 11]: 35.3 mg/mL (≈ 40.1 mM)
solubility at 3 days [2, 11]: 30 mg/mL (≈ 34.1 mM)
solubility at 7 days [2, 11]: 19.7 mg/mL (≈ 22.4 mM)
solubility over time (1 hr, 1 day, 3 days, 7 days) ([2]; lot 6 and lot 8, ganetespib placebo formulation (35% v/v tween 80, 40% v/v PEG-300, 25% v/v dehydrated alcohol), ambient): appear to decrease over time, although no any degradation was observed
tolerability ([3]; SCLC xenografts): very well tolerated
antitumor activity in SCLC xenografts (FIG. 19) ([3]; once weekly for three weeks, then drug-free period, SDC-TRAP-0063 100 and 150 mg/kg): remarkable and durable antitumor activity compared with irinotecan or ganetespib plus irinotecan
H2AX phosphorylation ([4]; HCT-116 tumors, 24 hr): stimulate H2AX phosphorylation at 24 hr
HSP70 and Hsp90 client protein (EGFR, MET) expression ([4]; HCT-116 tumors, 24 hr exposure): induces HSP70 comparable to irinotecan but much less than ganetespib; also recorded: lack of effects on EGFR and MET stability
Hsp90 inhibition (conclusion from PD) ([4]; HCT-116 xenograft tumors): weak Hsp90 inhibitor
kinetics of H2AX phosphorylation ([4]; HCT-116 xenograft tumors): beginning at 8 hr and leveling off at 24 hr
Metabolite Hydrolysis (SN-38) ([5]; Hepatocytes Dog): √
Metabolite Hydrolysis (SN-38) + H2O (carboxylate form) ([5]; Hepatocytes Dog): —
Metabolite Hydrolysis (SDC-TRAP-0062) ([5]; Hepatocytes Dog): —
Metabolite Hydrolysis (SDC-TRAP-0062) + N-dealkylation + glucuronide ([5]; Hepatocytes Dog): —
Metabolite Hydrolysis (SN-38) + glucuronidation ([5]; Hepatocytes Dog): —
Metabolite Hydrolysis (SN-38) + hydroxylation + glucuronidation ([5]; Hepatocytes Dog): —
Metabolite Hydrolysis (SDC-TRAP-0062) + glucuronidation ([5]; Hepatocytes Dog): —
Metabolite Hydrolysis (SDC-TRAP-0062) + oxidation + glucuronide ([5]; Hepatocytes Dog): —
Metabolite Hydrolysis (SDC-TRAP-0062) + di-oxidation + glucuronide ([5]; Hepatocytes Dog): —
Metabolite Hydrolysis (SDC-TRAP-0062) + H2O (ring opened) + glucuronide ([5]; Hepatocytes Dog): —
Metabolite Hydroxylation ([5]; Hepatocytes Dog): √
Metabolite Carboxylate form ([5]; Hepatocytes Dog): √
Metabolite Di-hydroxylation ([5]; Hepatocytes Dog): √
Metabolite Glucuronidation ([5]; Hepatocytes Dog): √
Metabolite Hydrolysis (SN-38) ([5]; Hepatocytes Human): —
Metabolite Hydrolysis (SN-38) + H2O (carboxylate form) ([5]; Hepatocytes Human): —
Metabolite Hydrolysis (SDC-TRAP-0062) ([5]; Hepatocytes Human): —
Metabolite Hydrolysis (SDC-TRAP-0062) + N-dealkylation + glucuronide ([5]; Hepatocytes Human): —
Metabolite Hydrolysis (SN-38) + glucuronidation ([5]; Hepatocytes Human): √
Metabolite Hydrolysis (SN-38) + hydroxylation + glucuronidation ([5]; Hepatocytes Human): —
Metabolite Hydrolysis (SDC-TRAP-0062) + glucuronidation ([5]; Hepatocytes Human): —
Metabolite Hydrolysis (SDC-TRAP-0062) + oxidation + glucuronide ([5]; Hepatocytes Human): —
Metabolite Hydrolysis (SDC-TRAP-0062) + di-oxidation + glucuronide ([5]; Hepatocytes Human): —
Metabolite Hydrolysis (SDC-TRAP-0062) + H2O (ring opened) + glucuronide ([5]; Hepatocytes Human): —
Metabolite Hydroxylation ([5]; Hepatocytes Human): —
Metabolite Carboxylate form ([5]; Hepatocytes Human): —
Metabolite Di-hydroxylation ([5]; Hepatocytes Human): —
Metabolite Glucuronidation ([5]; Hepatocytes Human): √
Metabolite Hydrolysis (SN-38) ([5]; Hepatocytes Monkey): √
Metabolite Hydrolysis (SDC-TRAP-0062) ([5]; Hepatocytes Monkey): —
Metabolite Hydrolysis (SDC-TRAP-0062) + N-dealkylation + glucuronide ([5]; Hepatocytes Monkey): —
Metabolite Hydrolysis (SN-38) + glucuronidation ([5]; Hepatocytes Monkey): √
Metabolite Hydrolysis (SN-38) + hydroxylation + glucuronidation ([5]; Hepatocytes Monkey): √
Metabolite Hydrolysis (SDC-TRAP-0062) + glucuronidation ([5]; Hepatocytes Monkey): —
Metabolite Hydrolysis (SDC-TRAP-0062) + oxidation + glucuronide ([5]; Hepatocytes Monkey): —
Metabolite Hydrolysis (SDC-TRAP-0062) + di-oxidation + glucuronide ([5]; Hepatocytes Monkey): —
Metabolite Hydrolysis (SDC-TRAP-0062) + H2O (ring opened) + glucuronide ([5]; Hepatocytes Monkey): —
Metabolite Hydroxylation ([5]; Hepatocytes Monkey): —
Metabolite Carboxylate form ([5]; Hepatocytes Monkey): —
Metabolite Di-hydroxylation ([5]; Hepatocytes Monkey): —
Metabolite Hydrolysis (SN-38) ([5]; Hepatocytes Mouse): —
Metabolite Hydrolysis (SN-38) + H2O (carboxylate form) ([5]; Hepatocytes Mouse): —
Metabolite Hydrolysis (SDC-TRAP-0062) ([5]; Hepatocytes Mouse): —
Metabolite Hydrolysis (SDC-TRAP-0062) + N-dealkylation + glucuronide ([5]; Hepatocytes Mouse): —
Metabolite Hydrolysis (SN-38) + glucuronidation ([5]; Hepatocytes Mouse): —
Metabolite Hydrolysis (SN-38) + hydroxylation + glucuronidation ([5]; Hepatocytes Mouse): —
Metabolite Hydrolysis (SDC-TRAP-0062) + glucuronidation ([5]; Hepatocytes Mouse): —
Metabolite Hydrolysis (SDC-TRAP-0062) + oxidation + glucuronide ([5]; Hepatocytes Mouse): —
Metabolite Hydrolysis (SDC-TRAP-0062) + di-oxidation + glucuronide ([5]; Hepatocytes Mouse): —
Metabolite Hydrolysis (SDC-TRAP-0062) + H2O (ring opened) + glucuronide ([5]; Hepatocytes Mouse): —
Metabolite Hydroxylation ([5]; Hepatocytes Mouse): —
Metabolite Carboxylate form ([5]; Hepatocytes Mouse): —
Metabolite Di-hydroxylation ([5]; Hepatocytes Mouse): —
Metabolite Glucuronidation ([5]; Hepatocytes Mouse): √
Metabolite Hydrolysis (SN-38) ([5]; Hepatocytes Rat): —
Metabolite Hydrolysis (SN-38) + H2O (carboxylate form) ([5]; Hepatocytes Rat): —
Metabolite Hydrolysis (SDC-TRAP-0062) ([5]; Hepatocytes Rat): —
Metabolite Hydrolysis (SDC-TRAP-0062) + N-dealkylation + glucuronide ([5]; Hepatocytes Rat): —
Metabolite Hydrolysis (SN-38) + glucuronidation ([5]; Hepatocytes Rat): √
Metabolite Hydrolysis (SN-38) + hydroxylation + glucuronidation ([5]; Hepatocytes Rat): —
Metabolite Hydrolysis (SDC-TRAP-0062) + glucuronidation ([5]; Hepatocytes Rat): —
Metabolite Hydrolysis (SDC-TRAP-0062) + oxidation + glucuronide ([5]; Hepatocytes Rat): —
Metabolite Hydrolysis (SDC-TRAP-0062) + di-oxidation + glucuronide ([5]; Hepatocytes Rat): —
Metabolite Hydrolysis (SDC-TRAP-0062) + H2O (ring opened) + glucuronide ([5]; Hepatocytes Rat): —
Metabolite Hydroxylation ([5]; Hepatocytes Rat): —
Metabolite Carboxylate form ([5]; Hepatocytes Rat): —
Metabolite Di-hydroxylation ([5]; Hepatocytes Rat): —
Metabolite Hydrolysis (SN-38) ([5]; Mouse in vivo Plasma 6 h): √
Metabolite Hydrolysis (SN-38) + H2O (carboxylate form) ([5]; Mouse in vivo Plasma 6 h): √
Metabolite Hydrolysis (SDC-TRAP-0062) ([5]; Mouse in vivo Plasma 6 h): √
Metabolite Hydrolysis (SDC-TRAP-0062) + N-dealkylation + glucuronide ([5]; Mouse in vivo Plasma 6 h): √
Metabolite Hydrolysis (SN-38) + glucuronidation ([5]; Mouse in vivo Plasma 6 h): √
Metabolite Hydrolysis (SN-38) + hydroxylation + glucuronidation ([5]; Mouse in vivo Plasma 6 h): —
Metabolite Hydrolysis (SDC-TRAP-0062) + glucuronidation ([5]; Mouse in vivo Plasma 6 h): √
Metabolite Hydrolysis (SDC-TRAP-0062) + oxidation + glucuronide ([5]; Mouse in vivo Plasma 6 h): √
Metabolite Hydrolysis (SDC-TRAP-0062) + di-oxidation + glucuronide ([5]; Mouse in vivo Plasma 6 h): √
Metabolite Hydrolysis (SDC-TRAP-0062) + H2O (ring opened) + glucuronide ([5]; Mouse in vivo Plasma 6 h): √
Metabolite Hydroxylation ([5]; Mouse in vivo Plasma 6 h): —
Metabolite Carboxylate form ([5]; Mouse in vivo Plasma 6 h): √
Metabolite Di-hydroxylation ([5]; Mouse in vivo Plasma 6 h): —
Metabolite Glucuronidation ([5]; Mouse in vivo Plasma 6 h): √
Metabolite Hydrolysis (SN-38) ([5]; Mouse in vivo Tumor 24 h): √
Metabolite Hydrolysis (SN-38) + H2O (carboxylate form) ([5]; Mouse in vivo Tumor 24 h): √
Metabolite Hydrolysis (SDC-TRAP-0062) ([5]; Mouse in vivo Tumor 24 h): √
Metabolite Hydrolysis (SDC-TRAP-0062) + N-dealkylation + glucuronide ([5]; Mouse in vivo Tumor 24 h): —
Metabolite Hydrolysis (SN-38) + glucuronidation ([5]; Mouse in vivo Tumor 24 h): √
Metabolite Hydrolysis (SN-38) + hydroxylation + glucuronidation ([5]; Mouse in vivo Tumor 24 h): —
Metabolite Hydrolysis (SDC-TRAP-0062) + glucuronidation ([5]; Mouse in vivo Tumor 24 h): √
Metabolite Hydrolysis (SDC-TRAP-0062) + oxidation + glucuronide ([5]; Mouse in vivo Tumor 24 h): —
Metabolite Hydrolysis (SDC-TRAP-0062) + di-oxidation + glucuronide ([5]; Mouse in vivo Tumor 24 h): —
Metabolite Hydrolysis (SDC-TRAP-0062) + H2O (ring opened) + glucuronide ([5]; Mouse in vivo Tumor 24 h): —
Metabolite Hydroxylation ([5]; Mouse in vivo Tumor 24 h): —
Metabolite Carboxylate form ([5]; Mouse in vivo Tumor 24 h): √
Metabolite Di-hydroxylation ([5]; Mouse in vivo Tumor 24 h): —
Metabolite Glucuronidation ([5]; Mouse in vivo Tumor 24 h): √
Peak Area Ratio ([6]; 0 h, 10 μM): 17.9
Peak Area Ratio ([6]; 0.5 h, 10 μM): 7.77
Peak Area Ratio ([6]; 1 h, 10 μM): 1.98
Peak Area Ratio ([6]; […], 10 μM): 15.6
% Remaining (1 h) ([6]; plasma, 1 h, 10 µM): 11.1%
% Remaining (1 h, 37° C.) ([6]; plasma, 1 h, 10 µM): 11.1%
% Remaining (1 h) ([6]; plasma, 1 h, 10 μM): 11.1%
safety profile (MCF-7 xenografts): good safety profile
solubility thermodynamic [7]: ~44 mg/mL (≈ 50 mM)
Mass Retention [8]: 18.7%
tolerability ([9]; HCT-116 xenografts, Q7D×3): very well tolerated
antitumor activity in HCT-116 xenografts (FIG. 23) ([9]; Q7D×3, then drug-free period, SDC-TRAP-0063 200 and 100 mg/kg, SDC-TRAP-0046 94 mg/kg, irinotecan 67 mg/kg, SYN-01 100 mg/kg): remarkable and durable antitumor activity compared with irinotecan or ganetespib plus irinotecan; also recorded: better activity in inhibiting the growth of HCT-116 cells in vivo than either positive control group; also recorded: significant dose-dependent activity
